Assay results: ChEMBL document CHEMBL1201862, “PubChem BioAssay data set” (2004)
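Tested at 5 concentrations; 48 h exposure; 96-well plates; endpoints linearly interpolated, else capped at highest concentration. At the GI50, growth is halved.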 Activity calls are given as the source filed them. No stated cut-off is given here; in the data, active = GI50 up to about 1.1 µM and inactive = higher.

Assays:
Assay in all cases: NCI tumour cell line growth inhibition, 48 h
786-0 = tested on: 786-0
A498 = tested on: A498
A549 = tested on: A549
ACHN = tested on: ACHN
BT-549 = tested on: BT-549
CAKI-1 = tested on: CAKI-1
CCRF-CEM = tested on: CCRF-CEM
COLO 205 = tested on: COLO 205
EKVX = tested on: EKVX
HCC 2998 = tested on: HCC 2998
HCT-116 = tested on: HCT-116
HCT-15 = tested on: HCT-15
HL-60 = tested on: HL-60
HOP-62 = tested on: HOP-62
HOP-92 = tested on: HOP-92
HT-29 = tested on: HT-29
IGROV-1 = tested on: IGROV-1
K562 = tested on: K562
KM12 = tested on: KM12
LOX IMVI = tested on: LOX IMVI
M14 = tested on: M14
MCF7 = tested on: MCF7
MDA-MB-231 = tested on: MDA-MB-231
MDA-MB-435 = tested on: MDA-MB-435
MDA-N = tested on: MDA-N
MOLT-4 = tested on: MOLT-4
Malme-3M = tested on: Malme-3M
NCI-H226 = tested on: NCI-H226
NCI-H23 = tested on: NCI-H23
NCI-H460 = tested on: NCI-H460
NCI-H522 = tested on: NCI-H522
NCI/ADR-RES = tested on: NCI/ADR-RES
OVCAR-3 = tested on: OVCAR-3
OVCAR-4 = tested on: OVCAR-4
OVCAR-8 = tested on: OVCAR-8
PC-3 = tested on: PC-3
RPMI-8226 = tested on: RPMI-8226
RXF 393 = tested on: RXF 393
SF-268 = tested on: SF-268
SF-295 = tested on: SF-295
SF-539 = tested on: SF-539
SK-MEL-28 = tested on: SK-MEL-28
SK-MEL-2 = tested on: SK-MEL-2
SK-MEL-5 = tested on: SK-MEL-5
SK-OV-3 = tested on: SK-OV-3
SN12C = tested on: SN12C
SNB-19 = tested on: SNB-19
SNB-75 = tested on: SNB-75
SR = tested on: SR
SW-620 = tested on: SW-620
T47D = tested on: T47D
TK-10 = tested on: TK-10
U-251 = tested on: U-251
UACC-257 = tested on: UACC-257
UACC-62 = tested on: UACC-62
UO-31 = tested on: UO-31
DU-145 = tested on: DU-145
OVCAR-5 = tested on: OVCAR-5

C/C(=N\Nc1nc2ccccc2n1C)c1cnccn1
GI50 (786-0): 0.0671 µM (active) | GI50 (A498): 0.684 µM (active) | GI50 (A549): 218 nM (active) | GI50 (ACHN): 0.065 µM (active) | GI50 (BT-549): 5.25 µM (inactive) | GI50 (CAKI-1): 0.0348 µM (active) | GI50 (CCRF-CEM): 51.3 nM (active) | GI50 (COLO 205): < 0.0139 µM (active) | GI50 (EKVX): 0.0424 µM (active) | GI50 (HCC 2998): 1.33 µM (inactive) | GI50 (HCT-116): 0.0265 µM (active) | GI50 (HCT-15): 0.0438 µM | GI50 (HL-60): 17.8 nM (active) | GI50 (HOP-62): 537 nM (active) | GI50 (HOP-92): 0.227 µM (active) | GI50 (HT-29): 0.0418 µM (active) | GI50 (IGROV-1): 0.0435 µM (active) | GI50 (K562): < 31.6 nM (active) | GI50 (KM12): 824 nM (active) | GI50 (LOX IMVI): 0.129 µM (active) | GI50 (M14): 0.064 µM (active) | GI50 (MCF7): 0.0246 µM (active) | GI50 (MDA-MB-231): 44 nM (active) | GI50 (MDA-MB-435): 0.55 µM (active) | GI50 (MDA-N): 0.753 µM (active) | GI50 (MOLT-4): < 0.0261 µM (active) | GI50 (Malme-3M): 0.065 µM (active) | GI50 (NCI-H226): 256 nM (active) | GI50 (NCI-H23): 0.105 µM (active) | GI50 (NCI-H460): 223 nM (active) | GI50 (NCI-H522): 0.129 µM (active) | GI50 (NCI/ADR-RES): 0.164 µM (active) | GI50 (OVCAR-3): 32.6 nM (active) | GI50 (OVCAR-4): 0.0504 µM (active) | GI50 (OVCAR-8): 0.0615 µM (active) | GI50 (PC-3): 0.0426 µM (active) | GI50 (RPMI-8226): < 29.7 nM (active) | GI50 (RXF 393): 1.23 µM (inactive) | GI50 (SF-268): 72.6 nM (active) | GI50 (SF-295): 367 nM (active) | GI50 (SF-539): 0.692 µM (active) | GI50 (SK-MEL-28): 0.565 µM (active) | GI50 (SK-MEL-2): 0.839 µM (active) | GI50 (SK-MEL-5): 0.154 µM (active) | GI50 (SK-OV-3): 292 nM (active) | GI50 (SN12C): 0.0395 µM (active) | GI50 (SNB-19): 2.73 µM (inactive) | GI50 (SNB-75): 5.13 µM (inactive) | GI50 (SR): 0.0649 µM (active) | GI50 (SW-620): 0.0418 µM (active) | GI50 (T47D): 0.0702 µM (active) | GI50 (TK-10): 70.3 nM (active) | GI50 (U-251): 339 nM (active) | GI50 (UACC-257): 0.0483 µM (active) | GI50 (UACC-62): 366 nM (active) | GI50 (UO-31): 0.0407 µM (active)

C(=N\c1ccc(-c2nc3ccccc3o2)cc1)/c1ccco1
GI50 (786-0): 75.2 µM (inactive) | GI50 (A498): 37.7 µM (inactive) | GI50 (ACHN): 49.7 µM (inactive) | GI50 (BT-549): 77.4 µM (inactive) | GI50 (CAKI-1): 40 µM (inactive) | GI50 (COLO 205): 37.7 µM (inactive) | GI50 (DU-145): 75 µM (inactive) | GI50 (EKVX): 48.3 µM (inactive) | GI50 (HCT-116): 59.6 µM (inactive) | GI50 (HCT-15): 49.3 µM | GI50 (HOP-92): 30.8 µM (inactive) | GI50 (HT-29): 63.5 µM (inactive) | GI50 (IGROV-1): 49.4 µM (inactive) | GI50 (LOX IMVI): 58.9 µM (inactive) | GI50 (M14): 79.6 µM (inactive) | GI50 (MCF7): 91.2 µM (inactive) | GI50 (MDA-MB-435): 75.9 µM (inactive) | GI50 (MDA-N): 64 µM (inactive) | GI50 (MOLT-4): 29 µM (inactive) | GI50 (Malme-3M): 82.2 µM (inactive) | GI50 (NCI-H23): 78.2 µM (inactive) | GI50 (NCI-H522): 44.2 µM (inactive) | GI50 (NCI/ADR-RES): 61.7 µM (inactive) | GI50 (OVCAR-4): 57.4 µM (inactive) | GI50 (OVCAR-5): > 100 µM (inactive) | GI50 (OVCAR-8): > 100 µM (inactive) | GI50 (PC-3): 55.7 µM (inactive) | GI50 (RPMI-8226): 45.3 nM (active) | GI50 (RXF 393): 39.7 µM (inactive) | GI50 (SF-539): > 100 µM (inactive) | GI50 (SK-MEL-28): > 100 µM (inactive) | GI50 (SK-MEL-2): 87.1 µM (inactive) | GI50 (SK-MEL-5): 30.8 µM (inactive) | GI50 (SN12C): 61.9 µM (inactive) | GI50 (SNB-19): > 100 µM (inactive) | GI50 (SNB-75): 49.1 µM (inactive) | GI50 (SR): 65.9 µM (inactive) | GI50 (SW-620): > 100 µM (inactive) | GI50 (T47D): 38.6 µM (inactive) | GI50 (UACC-257): 48.3 µM (inactive) | GI50 (UO-31): 41.4 µM (inactive)
